Measurements from patent publication US4810630A, “Use of polyoxyethylene ethers to improve the performance of immunoassays employing peroxidase conjugates” (priority 1987, dated 1989).

Test system: N. gonorrhea
Assay: Microtiter plate enzyme immunoassay: optimization of coating antibody concentration with detergent in assay buffer
Set-up: species or system Neisseria gonorrhea
Procedure: Samples were treated 1.0N NaOH and neutralized with assay buffer as described in Example 1, above. For this assay, 0.100 mL aliquots of the treated, neutralized sample were transferred to the wells of a 96-well microtiter plate which had been previously incubated with an optimized concentration of anti-N. gonorrhea antibody diluted in phosphate buffered saline for 90-120 minutes, drained, then blocked with a solution containing 1.0% bovine serum albumin and 20% sucrose in phosphate buffered saline for 2 hours and dried in vacuo. The aliquots were permitted to incubate in the microtiter plate wells for 90 minutes at room temperature,then drained and washed with phosphate buffered saline containing 0.05% Tween® 20. Horseradish peroxidase conjugated anti-N. gonorrhea, 100 μL of an optimized concentration, was then added to each well and the plate again incubated for 1 hour at room temperature. The plate was then drained and washed as above. A 100 μL portion of the substrate/chromogen solution described in Example 1, above, was then added to each well and incubated for 10 minutes at room temperature. The absorbance of each well was then determined at 630 nm, and corrected for the absorbance at 490 nm.
Antibody specific for Neisseria gonorrhea was used to coat the wells of microtiter plates at varying concentrations in phosphate buffered saline, as described above. A comparison of the optimal antibody concentration in assays using Tween® 20 or Triton® X-100 was made by testing a single concentration of N. gonorrhea in wells previously coated, blocked, and dried as described above. The optimum concentration of antibody is identified as that which yields the maximum signal in the assay with a minimal background response. Table 4 lists the results of such experiments using Tween® 20 and Triton® X-100 as detergents in the assay buffer.

Substance	% Maximum Signal (coating antibody 0.20 μg/well)	% Maximum Signal (coating antibody 0.30 μg/well)	% Maximum Signal (coating antibody 0.35 μg/well)	% Maximum Signal (coating antibody 0.40 μg/well)	% Maximum Signal (coating antibody 0.45 μg/well)	% Maximum Signal (coating antibody 0.5 μg/well)	% Maximum Signal (coating antibody 0.60 μg/well)	% Maximum Signal (coating antibody 0.05 μg/well)	% Maximum Signal (coating antibody 0.1 μg/well)	% Maximum Signal (coating antibody 0.8 μg/well)	% Maximum Signal (coating antibody 1.0 μg/well)	% Maximum Signal (coating antibody 1.5 μg/well)	% Maximum Signal (coating antibody 2.0 μg/well)
polyoxyethylene-octylphenoxy [Triton ® X-100]	100%	98%	70%	69%	66%	58%	57%						
polyoxyethylene-sorbitan monolaurate [Tween ® 20]						100%		16%	35%	98%	90%	77%	66%
